“And” between values parts separate entries of the source, which are not always exact repeats. Equal values may be shown once.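 Following 48 hours of exposure in 96-well plates, responses at five concentrations were used to interpolate endpoints linearly. GI50 marks 50% less growth. TGI: total growth inhibition.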
Columns and labels:
Assay in all cases: inhibition of tumour cell growth, NCI panel, 48 h
[1] = tested on: K-562 leukemia
[2] = tested on: MALME-3M melanoma
[3] = tested on: TK-10 renal
[4] = tested on: CCRF-CEM leukemia
[5] = tested on: PC-3 prostate
[6] = tested on: MCF7 breast
[7] = tested on: RXF 393 renal
[8] = tested on: UACC-62 melanoma
[9] = tested on: SF-295 CNS
[10] = tested on: HCT-116 colon

Compound | GI50 [1] [µM] | TGI [1] [µM] | GI50 [2] | TGI [2] | GI50 [3] | TGI [3] | GI50 [4] | TGI [4] [µM] | GI50 [5] | TGI [5] [µM] | GI50 [6] | TGI [6] [µM] | GI50 [7] | TGI [7] | GI50 [8] | TGI [8] | GI50 [9] | TGI [9] | GI50 [10] | TGI [10]
COc1ccc(S(=O)(=O)Nc2cc(/C=C\c3cc(OC)c(OC)c(OC)c3)ccc2OC)cc1 | 0.053 | > 100 | 0.0527 µM | 61.1 µM | 0.0768 µM | 11.5 µM | 0.176 µM | > 100 | 0.124 µM | > 100 | 0.0426 µM | > 100 | 0.0814 µM | > 100 µM | 0.049 µM | > 100 µM | 0.0393 µM | 70.9 µM | 0.0797 µM | > 100 µM
CN(C)CCCN1c2ccccc2C(C)(C)c2ccccc21 | – | 27.1 | – | 31 µM | – | 27.2 µM | – | 53.5 | – | 26.6 | – | 28 | – | 26.8 µM | – | 25.8 µM | – | 32.9 µM | – | 27.9 µM
C=C(C)[C@@H]1CC[C@]2(C)[C@H](CC=C3[C@@H]4[C@@H](C)[C@H](C)CC[C@]4(C(N)=O)CC[C@]32C)[C@@]1(C)CCC#N | 3.38 | > 100 | 5.69 µM | 27.9 µM | 8.41 µM | 91.5 µM | 3.73 µM | 45 | 2.58 µM | 21 | 3.59 µM | > 100 | 3.33 µM | 11.4 µM | 5.69 µM | 29 µM | 4.44 µM | > 100 µM | 15.6 µM | 29.9 µM
FC(F)(F)c1ccc(C#Cc2ccccc2C#Cc2ccccc2)cc1 | 34.2 | 89.5 | 36.3 µM | > 100 µM | 31.7 µM | > 100 µM | 26 µM | 61.6 | 51.5 µM | > 100 | 22.5 µM | 89.8 | 23.4 µM | 65.6 µM | 92.9 µM | > 100 µM | 30.3 µM | > 100 µM | 21.6 µM | > 100 µM
COc1ccc(/C=C(\C#N)n2nnc3ccccc32)cc1 | 0.043 | > 100 | 0.418 µM | > 71.2 µM | 2.22 µM | 58.6 µM | 0.295 µM | > 100 | 0.293 µM | > 60 | 0.328 µM | > 100 | 0.15 µM | 0.607 µM | 0.0893 µM | 19.7 µM | 0.205 µM | 6.66 µM | 0.0955 µM | 2.15 µM
O=C1C2C(c3ccccc3)NC(c3ccccc3)C1C(c1ccccc1)NC2c1ccccc1 (configuration not stated) | – | > 100 | – | > 100 µM | – | > 100 µM | – | > 100 | – | > 100 | – | > 100 | – | > 100 µM | – | > 100 µM | – | > 100 µM | – | > 100 µM
C=C1C(=O)O[C@H]2[C@H](OC(C)=O)[C@@H](C)CCC/C(C)=C/CC[C@@]3(C)O[C@@H]3C[C@@H]12 | – | > 100 | – | 30.6 µM | – | 5 µM | – | 3.76 | – | > 47.5 | – | 7.71 | – | 5.08 µM | – | 9.43 µM | – | 28.5 µM | – | 6.83 µM
O=c1oc2cc(N=Cc3ccc4c(c3)OCO4)ccc2c2ccccc12 | – | > 100 | – | > 100 µM | – | > 100 µM | – | > 100 | – | > 100 | – | > 100 | – | 67.2 µM | – | > 100 µM | – | > 100 µM | – | > 100 µM
OC(CNCC1CCCO1)Cn1c2ccc(Cl)cc2c2cc(Cl)ccc21 (configuration not stated) | 2.15 | 4.76 | 1.93 µM | 3.94 µM | 2.05 µM | 3.75 µM | 2.28 µM | 4.99 | 1.93 µM | 3.74 | 1.72 µM | 3.25 | 1.62 µM | 3.51 µM | 1.78 µM | 3.46 µM | 1.78 µM | 3.57 µM | 1.73 µM | 3.12 µM
Cc1ccc2nc(-c3ccccc3)c(N=O)n2c1 | – | > 100 | – | > 100 µM | – | > 100 µM | – | > 100 | – | > 100 | – | > 100 | – | > 100 µM | – | 49.6 µM | – | > 100 µM | – | > 100 µM
CCN1Cc2c(ccc(F)c2C#N)O[C@@H](C)CNC(=O)c2c(N)nn3ccc1nc23 | 0.175 | > 100 | 1.15 µM | 7.4 µM | 1.29 µM | 11.7 µM | 3.74 µM | > 100 | 1.64 µM | 26.6 | 3.23 µM | 31.1 | 0.46 µM | 3.67 µM | 0.632 µM | 3.65 µM | 0.0758 µM | 10.3 µM | 1.25 µM | 11.5 µM
COC(=O)C1CCCN1C(=O)[C@@H]1CCCN1C(=O)[C@H](Cc1c[nH]c2ccccc12)NC(=S)Nc1cc(C(F)(F)F)cc(C(F)(F)F)c1 (some centres not stated) | 2.92 | 13.3 | 3.35 µM | 12.7 µM | 2.11 µM | 5 µM | 2.75 µM | 8.55 | 1.91 µM | 5.32 | 2.19 µM | 6 | 1.78 µM | 4.4 µM | 1.7 µM | 4.08 µM | 1.77 µM | 4.08 µM | 1.72 µM | 3.34 µM
CCN(CC)CCn1c2ccccc2c(=O)c2c(O)ccc(O)c21 | – | 68.5 | – | 49.3 µM | – | 49.2 µM | – | > 90.2 | – | > 56.1 | – | 40.1 | – | 35.9 µM | – | 52.8 µM | – | 56.1 µM | – | 58.6 µM
COc1cc2c(cc1OCCCCCOc1ccc(-n3c(C)nc4ccccc4c3=O)cc1)N=C[C@@H]1CCCN1C2=O | 0.164 | – | 0.236 µM | 0.585 µM | 0.32 µM | 0.867 µM | 0.21 µM | 0.588 | 0.34 µM | 2.89 | 0.271 µM | 1.3 | 0.21 µM | 0.39 µM | 0.171 µM | 0.336 µM | 0.391 µM | 1.83 µM | 0.167 µM | 0.327 µM
CC1(O)CC(c2nc(-c3ccc4ccc(-c5ccccc5)nc4c3)c3c(N)nccn23)C1 (configuration not stated) | – | > 100 | 7.95 µM and > 10 µM | 38.2 µM and > 10 µM | 12 µM and > 10 µM | 56.3 µM and > 10 µM | 9.89 µM and > 10 µM | > 100 | 12.7 µM and > 10 µM | > 100 | 0.122 µM and 0.332 µM | > 43.3 | 3.71 µM and 4.96 µM | 13.7 µM and > 10 µM | 10.8 µM and > 10 µM | 32.2 µM and > 10 µM | 12.5 µM and > 10 µM | 48.1 µM and > 10 µM | 7.32 µM and 5.29 µM | 26.7 µM and > 10 µM
O=C1C=CC[C@H](/C=C/c2ccccc2)O1 | – | > 100 | 18.5 µM | > 100 µM | 11.5 µM | > 53.2 µM | 9.5 µM | > 50.2 | 3.37 µM | 27.5 | 1.65 µM | > 37.8 | 5.23 µM | > 100 µM | 4.84 µM | 19 µM | 2.54 µM | > 40.9 µM | 1.72 µM | 13.9 µM
